From patent US6022880A, “Substituted pyridylamino indoles” (Hoechst Marion Roussel, Inc., priority 1997, dated 2000)
Counter-ions that a name gives are not always drawn.

Legend:
MAO-B = molecular target: T1, MAO-B (Rattus norvegicus, UniProt P19643); assay: biochemical; set-up: species or system rat (male Wistar, whole brain minus cerebellum); details: substrate [14C]-PEA 200 μM; read-out: Inhibitory Concentration - IC50 MAO-B
T1 sequence (P19643 1-520): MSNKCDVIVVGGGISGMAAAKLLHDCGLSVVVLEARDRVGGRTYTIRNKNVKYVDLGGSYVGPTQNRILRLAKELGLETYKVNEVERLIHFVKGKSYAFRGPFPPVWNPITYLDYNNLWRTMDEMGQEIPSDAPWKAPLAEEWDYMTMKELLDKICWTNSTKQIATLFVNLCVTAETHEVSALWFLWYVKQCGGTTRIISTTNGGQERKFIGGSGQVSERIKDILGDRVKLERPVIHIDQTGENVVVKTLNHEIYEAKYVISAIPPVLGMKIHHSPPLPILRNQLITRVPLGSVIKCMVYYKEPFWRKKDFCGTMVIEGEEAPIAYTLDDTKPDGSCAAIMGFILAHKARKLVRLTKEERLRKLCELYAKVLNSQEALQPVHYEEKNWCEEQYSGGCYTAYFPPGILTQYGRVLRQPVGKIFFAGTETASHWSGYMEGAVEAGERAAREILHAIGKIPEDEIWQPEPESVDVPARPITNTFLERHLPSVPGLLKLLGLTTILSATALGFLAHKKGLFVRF
Method: (§5) Inhibition of Type A and Type B Monoamine Oxidase Activity in Rat Brain Synaptosomes
a. β-phenethylamine (PEA) is obtained from Sigma Chemical Company. A 5 mM stock solution is made up in 0.01 N HCl. This is used to dilute the specific activity of the [^14 C]-PEA.
b. β-[ethyl-1-^14 C]-phenethylamine hydrochloride (40-50 mCi/mmol) is obtained from New England Nuclear.
Add 12 μl of [^14 C]-PEA to 2 ml of the 5 mM PEA solution. (Final amine concentration in the assay is 200 μM: see below.)
(§6) Equal amounts of MAO-A (5HT) and MAO-B (PEA) substrates are combined for simultaneously testing both MAO types, i.e. mixed stock solution of 2.5 mM 5HT and 2.5 mM PEA, 40 μl of this mixed solution gives a 200 μM final concentration of each amine in the assay. When testing only one MAO type, the individual 5 mM stock solutions must be diluted 1:1 with distilled water prior to adding 40 μl to the incubation mixture; i.e., same 200 μM final amine concentration.
(§7) Male Wistar rats weighing 150-250 grams were sacrificed and the brains rapidly removed. Whole brain minus cerebellum was homogenized in 30 volumes of ice-cold, phosphate-buffered 0.25 M sucrose, using a Potter-Elvejhem homogenizer. The homogenate was centrifuged at 1000 g for 10 minutes and the supernatant (S1) decanted and recentrifuged at 18,000 g for 20 minutes. The resulting pellet (p2) was resuspended in fresh 0.25 M sucrose and served as the tissue source for mitochondrial MAO.
(§8) Tubes are preincubated for 15 minutes at 37° C. and the assay is started by adding 40 μl of combined substrate ([^3 H]-5HT and [^14 C]-PEA) at 15 second intervals. The tubes are incubated for 30 minutes at 37° C. and the reaction stopped by the addition of 0.3 ml 2N HCl. Tissue blank values are determined by adding the acid before the radioactive substrate. The oxidative products of the reaction are extracted with ethyl acetate/toluene (1:1). 5 ml of this mixture is added to the tubes. The resultant mixture is vortexed for 15 seconds to extract the deaminated metabolites into the organic phase and the latter is allowed to separate from the aqueous phase. The tubes are placed in acetone/dry ice bath to freeze the aqueous layer. When this layer is frozen, the top organic layer is poured into a scintillation vial. 10 ml of Liquiscint is added and the samples are counted using window settings for ^14 C in one channel and ^3 H in the second channel. IC50 values are determined by log-probit analysis.

MAO-A = molecular target: T2, MAO-A (Rattus norvegicus, UniProt P21396); assay: biochemical; set-up: species or system rat (male Wistar, whole brain minus cerebellum); details: substrate [3H]-5HT 200 μM; read-out: Inhibitory Concentration - IC50 MAO-A
T2 sequence (P21396 1-526): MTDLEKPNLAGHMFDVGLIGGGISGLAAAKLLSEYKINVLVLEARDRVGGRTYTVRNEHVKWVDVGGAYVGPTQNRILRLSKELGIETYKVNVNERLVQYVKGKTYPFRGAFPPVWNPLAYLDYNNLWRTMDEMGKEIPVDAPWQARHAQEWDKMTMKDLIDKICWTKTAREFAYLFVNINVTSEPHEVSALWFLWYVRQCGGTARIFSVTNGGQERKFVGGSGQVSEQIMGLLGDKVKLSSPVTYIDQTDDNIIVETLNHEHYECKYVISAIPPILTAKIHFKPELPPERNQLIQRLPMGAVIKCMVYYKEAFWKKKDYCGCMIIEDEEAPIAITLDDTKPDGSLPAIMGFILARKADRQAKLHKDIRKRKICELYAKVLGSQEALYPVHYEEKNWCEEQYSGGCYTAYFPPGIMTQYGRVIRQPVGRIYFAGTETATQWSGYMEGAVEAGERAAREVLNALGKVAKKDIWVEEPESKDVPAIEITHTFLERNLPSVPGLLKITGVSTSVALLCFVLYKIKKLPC
From the text: as §5
To determine the selective inhibition of the two forms of monoamine oxidase (MAO).
Although various methods for measuring MAO activity are available, the described method involves the extraction of the radiolabeled deaminated metabolites of [^3 H]-5HT or [^14 C]-β-phenethylamine. This procedure allows MAO-A and MAO-B activities to be measured either simultaneously or individually (3).
Serotonin creatinine SO4 (5HT) is obtained from Sigma Chemical Company. A 5 mM stock solution is made up in 0.01 N HCl. This is used to dilute the specific activity of the [^3 H]-5HT.
[^3 H]-5-Hydroxytryptamine creatinine SO4 (20-30 Ci/mmol) is obtained from New England Nuclear.
Add 12 μl of [^3 H]-5HT to 2 ml of the 5 mM 5HT solution. (Final amine concentration in the assay is 200 μM: see below.)
as §6, §7, §8

[1] = tested on: norepinephrine uptake, rat whole brain or hypothalamic synaptosomes; assay: Inhibition of [3H]-Norepinephrine Uptake in Rat Whole Brain or Hypothalamic Synaptosomes; format: biochemical, rat (male Wistar); details: [3H]-NE 50 nM, read-out: E: Inhibition of norepinephrine uptake, IC50
Method: (E) Inhibition of [^3 H]-Norepinephrine Uptake in Rat Whole Brain or Hypothalamic Synaptosomes
This assay is used as a biochemical screen for potential antidepressants which block norepinephrine uptake.
A. Animals: Male CR Wistar rats (100-125 g).
The final desired concentration of [^3 H]-NE in the assay is 50 nM. The dilution factor is 0.8.
(§1) 5. For most assays, a 1 mM stock solution of the test compound is made up in a suitable solvent and serially diluted such that the final concentration in the assay ranges from 2×10^-8 to 2×10^-5 M. Seven concentrations are used for each assay.
(§2) Male Wistar rats are decapitated and the brain rapidly removed. Either whole brain minus cerebella or hypothalamus is weighed and homogenized in 9 volumes of ice-cold 0.32 M sucrose using a Potter-Elvejhem homogenizer. Homogenization should be done with 4-5 up and down strokes at medium speeds to minimize synaptosome lysis. The homogenate is centrifuged at 1000 g for 10 min. at 0-4° C. The supernatant (S1) is decanted and is used for uptake experiments.
(§3) Tubes are incubated at 37° C. under a 95% O2 /5% CO2 atmosphere for 5 minutes. For each assay, 3 tubes are incubated with 20 μl of vehicle at 0° C. in an ice bath. After incubation all tubes are immediately centrifuged at 4000 g for 10 minutes. The supernatant fluid is aspirated and the pellets dissolved by adding 1 ml of solubilizer (Triton X-100+50% EtOH, 1:4 v/v). The tubes are vigorously vortexed, decanted into scintillation vials, and counted in 10 ml of Liquiscint scintillation counting cocktail. Active uptake is the difference between cpm at 37° C. and 0° C. The percent inhibition at each drug concentration is the mean of three determinations. IC50 values are derived from log-probit analysis.

[2] = tested on: dopamine uptake, rat striatal synaptosomes; assay: Inhibition of 3H-Dopamine Uptake in Rat Striatal Synaptosomes; format: biochemical, rat (male Wistar); details: 3H-DA 50 nM, read-out: D: Inhibition of dopamine uptake, IC50
Method: (D) Inhibition of ^3 H-Dopamine Uptake in Rat Striatal Synaptosomes
This assay is used to show differential drug effects on dopamine uptake versus norepinephrine uptake and to identify therapeutic agents for diseases where the potentiation of dopaminergic activity may be helpful (e.g. Parkinson's Disease).
(§4) A. Animals: Male CR Wistar Rats (100-125 g).
The final desired concentration of ^3 H-DA in the assay is 50 nM. The dilution factor is 0.9. Therefore, the KHBB is made up to contain 55.5 nM [^3 H]-5DA.
as §1, with “assay. Higher or lower concentrations may be used depending on the potency of the compound.” for “assay.”
as §2, with “Corpora striata are rapidly removed,” for “Either whole brain minus cerebella or hypothalamus is”
as §3

[3] = tested on: mice (scopolamine induced memory deficit); assay: Dark Avoidance Assay (reversal of scopolamine induced memory deficit); format: in vivo, mouse; details: s.c.
Method: Dark Avoidance Assay In this assay mice are tested for their ability to remember an unpleasant stimulus for a period of 24 hours. A mouse is placed in a chamber that contains a dark compartment; a strong incandescent light drives it to the dark compartment, where an electric shock is administered through metal plates on the floor. The animal is removed from the testing apparatus and tested again, 24 hours later, for the ability to remember the electric shock. If scopolamine, an anticholinergic agent that is known to cause memory impairment, is administered before an animal's initial exposure to the test chamber, the animal re-enters the dark compartment shortly after being placed in the test chamber 24 hours later. This effect of scopolamine is blocked by an active test compound, resulting in a greater interval before re-entry into the dark compartment. The results for an active compound are expressed as the percent of a group of animals in which the effect of scopolamine is blocked, as manifested by an increased interval between being placed in the test chamber and re-entering the dark compartment.

[4] = tested on: serotonin uptake, rat whole brain synaptosomes; assay: Inhibition of [3H]-Serotonin Uptake in Rat Whole Brain Synaptosomes; format: biochemical, rat (male Wistar); details: [3H]-5HT 50 nM, read-out: C: Inhibition of serotonin uptake, IC50
Method: (C) Inhibition of [^3 H]-Serotonin Uptake in Rat Whole Brain Synaptosomes
as §4
The final desired concentration of ^3 H-5HT in the assay is 50 nM. The dilution factor is 0.8.
5. For most assays, a 1 mM solution of the test compound is made up in suitable solvent and serially diluted such that the final concentration in the assay ranges from 2×10^-8 to 2×10^-5 M. Seven concentrations are used for each assay.
as §2, with “Whole” for “Either whole”, “cerebella” for “cerebella or hypothalamus”
as §3, with “(Tritor.” for “(Triton”

Row | IC50 (MAO-B) [µM] | IC50 (MAO-A) [µM] | Structure (SMILES) | IC50 [1] [nM] | IC50 [2] [nM] | other results
1 | 17 | 3.2 | COc1ccc2c(Nc3ccncc3)csc2c1 [6-Methoxy-3(4-pyridinylamino)benzo[b]thiophene hydrochloride] |  |  | 
2 | 205 | 182 | CCCN(c1ccncc1)c1csc2cc(OC)ccc12 [6-Methoxy-3-(propyl-4-pyridinylamino)benzo[b]thiophene hydrochloride] |  |  | 
3 |  |  | CN1CCN(C2=Nc3cc(Cl)ccc3Nc3ccccc32)CC1 [Clozapine, reference compound] | > 20000 | > 20000 | 
4 |  |  | CN(C)CCCN1c2ccccc2CCc2ccc(Cl)cc21 [Chloripramine, reference compound] | 18600 | > 20000 | 
5 |  |  | Cn1cc(Nc2ccncc2)c2ccccc21.O=C(O)/C=C/C(=O)O [1-Methyl-3-(4-pyridinylamino)indole fumarate] |  |  | % of Animals with Scopolamine Induced Memory Deficit Reversal ([3]; 1 mg/kg of body weight): 33%; % of Animals with Scopolamine Induced Memory Deficit Reversal ([3]; 3 mg/kg of body weight): 29%; % of Animals with Scopolamine Induced Memory Deficit Reversal ([3]; 10 mg/kg of body weight): 27%
6 |  |  | CN(C)CCC=C1c2ccccc2CCc2ccccc21 [Amitriptyline, reference compound] | 7700 | > 20000 | 
7 |  |  | CN(c1ccncc1)c1cc2ccccc2s1 [2-(Methyl-4-pyridinylamino)benzo[b]thiophene hydrochloride] | 78 | 510 | IC50 [4]: 1150 nM
8 |  |  | Clc1ccc2c(N(CC3CC3)c3ccncc3)csc2c1 [6-Chloro-3-[(cyclopropylmethyl)(4-pyridyl)amino]benzo[b]thiophen hydrochloride] | 12 |  | IC50 [4]: 120 nM
9 |  |  | O=C(O)/C=C\C(=O)O.c1ccc2c(Nc3ccncc3)c[nH]c2c1 [3-(4-pyridinylamino)-1H-indole maleate, 3-(4-Pyridinylamino)-1H-indole maleate] |  |  | % of Animals with Scopolamine Induced Memory Deficit Reversal ([3]; 10 mg/kg of body weight): 70%
10 | 51 | 10.5 | Clc1ccc2c(Nc3ccncc3)csc2c1 [6-Chloro-3-(4-pyridinylamino)benzo[b]thiophene hydrochloride] |  |  | 
11 |  |  | C=CCN(c1ccncc1)c1csc2cc(Cl)ccc12 [6-Chloro-3-[(2-propenyl)(4-pyridinyl)amino]benzo[b]thiophen hydrochloride] | 7 |  | IC50 [4]: 120 nM
12 | 165 | 60 | FC(F)(F)c1ccc2c(Nc3ccncc3)csc2c1 [3-(4-Pyridinylamino)-6-trifluoromethylbenzo[b]thiophene hydrochloride] |  |  | 
13 |  |  | Nc1c2c(nc3ccccc13)CCCC2 [Tacrine, reference compound] |  |  | % of Animals with Scopolamine Induced Memory Deficit Reversal ([3]; 0.63 mg/kg of body weight): 13%
14 |  |  | Clc1ccc2c(Nc3ccncc3)c[nH]c2c1 [6-Chloro-3-(4-pyridinylamino)-1H-indole, 6-Chloro-3(4-pyridinylamino)indole] |  |  | % of Animals with Scopolamine Induced Memory Deficit Reversal ([3]; 1 mg/kg of body weight): 27%; % of Animals with Scopolamine Induced Memory Deficit Reversal ([3]; 3 mg/kg of body weight): 20%; % of Animals with Scopolamine Induced Memory Deficit Reversal ([3]; 10 mg/kg of body weight): 27%
15 |  |  | CC[C@@H]1C(=O)OC[C@@H]1Cc1cncn1C [Pilocarpine, reference compound] |  |  | % of Animals with Scopolamine Induced Memory Deficit Reversal ([3]; 5.0 mg/kg of body weight): 13%
16 | 51 | 2.8 | Clc1ccc2c(Nc3ccncc3)noc2c1 [6-Chloro-3-[(4-pyridinyl)amino]-1,2-benzisoxazole maleate] |  |  | 
17 | 18 | 5.3 | c1ccc2c(Nc3ccncc3)csc2c1 [3-(4-Pyridinylamino)benzo[b]thiophene hydrochloride] |  |  | 
18 |  |  | O=C1CC2(CCCC2)CC(=O)N1CCCCN1CCN(c2ncccn2)CC1 [Buspirone] |  | > 20000 | 
19 |  |  | CCCN(c1ccncc1)c1cc2ccccc2s1 [2-(Propyl-4-pyridinylamino)benzo[b]thiophene hydrochloride] | 55 | 91 | IC50 [4]: 240 nM
20 | 3.9 | 0.64 | c1ccc2c(Nc3ccncc3)noc2c1 [3-[(4-pyridinyl)amino]-1,2-benzisoxazole] |  |  | 
